According to patent US20250084074A1, “SUBSTITUTED HETEROCYCLES AS HSET INHIBITORS” (MERCK PATENT GMBH, priority 2022, published 2025):
Structures can show the parent of a compound that is named as a salt.

Each compound was assayed against HSET full length protein (Homo sapiens (Human), UniProt Q9BW19) (assay: HSET ADP-Glo Assay S - 3 μM ATP). Conditions: 5 nM HSET, 70 μg/mL microtubule, 80 min at rt, read-out: COMBINED HSET ADP GLO IC50.
Sequence of HSET full length protein (Q9BW19 whole entry): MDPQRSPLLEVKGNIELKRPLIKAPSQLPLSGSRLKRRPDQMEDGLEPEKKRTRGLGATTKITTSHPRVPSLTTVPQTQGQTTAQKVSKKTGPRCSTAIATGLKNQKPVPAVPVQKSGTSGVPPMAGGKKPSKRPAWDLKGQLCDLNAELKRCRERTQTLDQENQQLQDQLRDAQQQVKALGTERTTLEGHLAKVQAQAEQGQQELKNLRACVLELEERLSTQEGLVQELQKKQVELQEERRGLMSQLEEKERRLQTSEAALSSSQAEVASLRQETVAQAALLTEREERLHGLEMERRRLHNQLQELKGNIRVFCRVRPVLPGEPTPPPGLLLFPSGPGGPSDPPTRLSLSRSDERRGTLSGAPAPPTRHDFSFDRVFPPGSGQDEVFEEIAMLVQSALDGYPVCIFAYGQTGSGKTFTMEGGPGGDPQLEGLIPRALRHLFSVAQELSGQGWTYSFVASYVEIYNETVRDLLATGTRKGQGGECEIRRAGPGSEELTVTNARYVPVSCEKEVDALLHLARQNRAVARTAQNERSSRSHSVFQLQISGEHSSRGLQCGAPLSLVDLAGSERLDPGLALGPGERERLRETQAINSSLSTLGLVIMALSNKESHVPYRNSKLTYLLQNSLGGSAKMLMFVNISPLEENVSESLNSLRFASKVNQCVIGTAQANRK
Type: biochemical
How it was run: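 Full-length human HSET (5 nM) with paclitaxel-stabilised bovine brain microtubules (70 μg/mL) in HEPES pH 6.8 buffer was preincubated 10 min with compound. ATP at 3 μM started the reaction, which ran 80 min at rt. ADP formed was measured by ADP-Glo luminescence.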
With `CCCOC(=O)c1sc(NC(=O)CC2(NC(=O)c3cc(Cl)cc(-c4noc(C)n4)c3)CCN(C)CC2)nc1C` [Example 144, Propyl-2-(2-(4-(3-chloro-5-(5-methyl-1,2,4-oxadiazol-3-yl)benzamido)-1-methylpiperidin-4-yl)acetamido)-4-methylthiazole-5-carboxylate] the IC50 was 9.2 µM. Work on `CCOC(=O)c1sc(NC(=O)C(C)CNC(=O)c2cccc(-c3noc(C)n3)c2)nc1C` (centres unmarked) [Example 145, Ethyl-4-methyl-2-(2-methyl-3-(3-(5-methyl-1,2,4-oxadiazol-3-yl)benzamido)propanamido)thiazole-5-carboxylate] yielded an IC50 of 5.48 µM. Compound `CCOC(=O)c1sc(NC(=O)CC(NC(=O)c2cccc(-c3noc(C)n3)c2)C2CCNCC2)nc1C` (centres unmarked) [Example 146, 4-(3-((5-(ethoxycarbonyl)-4-methylthiazol-2-yl)amino)-1-(3-(5-methyl-1,2,4-oxadiazol-3-yl)benzamido)-3-oxopropyl)piperidin-1-ium formate] has an IC50 of 0.26 µM. With `CCOC(=O)c1sc(NC(=O)CC(NC(=O)c2cccc(-c3noc(C)n3)c2)C2CCN(C)CC2)nc1C` (centres unmarked) [Example 147, 4-(3-((5-(ethoxycarbonyl)-4-methylthiazol-2-yl)amino)-1-(3-(5-methyl-1,2,4-oxadiazol-3-yl)benzamido)-3-oxopropyl)-1-methylpiperidin-1-ium formate] the IC50 was 0.291 µM. Work on `CCOC(=O)c1sc(NC(=O)C[C@H](CN)NC(=O)c2cccc(-c3noc(C)n3)c2)nc1C` [Example 148, Ethyl-2-[[(3R)-4-amino-3-[[3-(5-methyl-1,2,4-oxadiazol-3-yl)benzoyl]amino]butanoyl]amino]-4-methyl-thiazole-5-carboxylate] yielded an IC50 of 0.133 µM. `CCOC(=O)c1sc(NC(=O)[C@H]2CNC[C@@H]2NC(=O)c2cccc(-c3noc(C)n3)c2)nc1C` [Example 149, Ethyl-4-methyl-2-[[(3S,4R)-4-[[3-(5-methyl-1,2,4-oxadiazol-3-yl)benzoyl]amino]pyrrolidine-3-carbonyl]amino]thiazole-5-carboxylate; formic acid] showed an IC50 of 2.79 µM. Compound `CCOC(=O)c1sc(NC(=O)C[C@H](CCCN)NC(=O)c2cccc(-c3noc(C)n3)c2)nc1C` [Example 150, ethyl (S)-2-(6-amino-3-(3-(5-methyl-1,2,4-oxadiazol-3-yl)benzamido)hexanamido)-4-methylthiazole-5-carboxylate] has an IC50 of 0.057 µM. For `CCCOC(=O)c1sc(NC(=O)C[C@H](CCCN)NC(=O)c2cccc(-c3noc(C)n3)c2)nc1C` [Example 151, Popyl-(S)-2-(6-amino-3-(3-(5-methyl-1,2,4-oxadiazol-3-yl)benzamido)hexanamido)-4-methylthiazole-5-carboxylate], the IC50 was 0.013 µM. Work on `CCCOC(=O)c1sc(NC(=O)C[C@H](CCCNC)NC(=O)c2cccc(-c3noc(C)n3)c2)nc1C` [Example 152, Propyl 4-methyl-2-[[(3S)-6-(methylamino)-3-[[3-(5-methyl-1,2,4-oxadiazol-3-yl)benzoyl]amino]hexanoyl]amino]thiazole-5-carboxylate] yielded an IC50 of 0.019 µM. Compound `CCCOC(=O)c1sc(NC(=O)C[C@@H](CCCNC)NC(=O)c2cccc(-c3noc(C)n3)c2)nc1C` [Example 153, Propyl-(R)-4-methyl-2-(3-(3-(5-methyl-1,2,4-oxadiazol-3-yl)benzamido)-6-(methylamino)hexanamido)thiazole-5-carboxylate] has an IC50 of 0.285 µM. For `CNCCC[C@@H](CC(=O)Nc1nc(C)c(C(=O)OC(C)(C)C)s1)NC(=O)c1cccc(-c2noc(C)n2)c1` [Example 154, Tert-butyl 4-methyl-2-[[(3S)-6-(methylamino)-3-[[3-(5-methyl-1,2,4-oxadiazol-3-yl)benzoyl]amino]hexanoyl]amino]thiazole-5-carboxylate], the IC50 was 0.006 µM. With `CNCCC[C@@H](CC(=O)Nc1nc(C)c(C(=O)OC2CCCC2)s1)NC(=O)c1cccc(-c2noc(C)n2)c1` [Example 155, Cyclopentyl (S)-4-methyl-2-(3-(3-(5-methyl-1,2,4-oxadiazol-3-yl)benzamido)-6-(methylamino)hexanamido)thiazole-5-carboxylate] the IC50 was 0.011 µM. `CNCCC[C@@H](CC(=O)Nc1nc(C)c(C(=O)OC(C)C)s1)NC(=O)c1cccc(-c2noc(C)n2)c1` [Example 156, Isopropyl (S)-4-methyl-2-(3-(3-(5-methyl-1,2,4-oxadiazol-3-yl)benzamido)-6-(methylamino)hexanamido)thiazole-5-carboxylate] showed an IC50 of 0.053 µM. With `CNCCC[C@@H](CC(=O)Nc1nc(C)c(C(C)(C)C)s1)NC(=O)c1cc(Cl)cc(-c2noc(C)n2)c1` [Example 157, (S)-N-(1-((5-(tert-butyl)-4-methylthiazol-2-yl)amino)-6-(methylamino)-1-oxohexan-3-yl)-3-chloro-5-(5-methyl-1,2,4-oxadiazol-3-yl)benzamide] the IC50 was 0.373 µM. For `CCCOC(=O)c1sc(NC(=O)C[C@H](CCCN(C)C)NC(=O)c2cccc(-c3noc(C)n3)c2)nc1C` [Example 158, Propyl (S)-2-(6-(dimethylamino)-3-(3-(5-methyl-1,2,4-oxadiazol-3-yl)benzamido)hexanamido)-4-methylthiazole-5-carboxylate], the IC50 was 0.011 µM. In the case of `CCCOC(=O)c1sc(NC(=O)C[C@H](CCCN2CCOCC2)NC(=O)c2cccc(-c3noc(C)n3)c2)nc1C` [Example 159, Propyl (S)-4-methyl-2-(3-(3-(5-methyl-1,2,4-oxadiazol-3-yl)benzamido)-6-morpholinohexanamido)thiazole-5-carboxylate], the IC50 is reported as 0.021 µM. `CCCOC(=O)c1sc(NC(=O)C[C@H](CCN(C)C)NC(=O)c2cccc(-c3noc(C)n3)c2)nc1C` [Example 162, Propyl (S)-2-(5-(dimethylamino)-3-(3-(5-methyl-1,2,4-oxadiazol-3-yl)benzamido)pentanamido)-4-methylthiazole-5-carboxylate] was tested, and the IC50 was 0.558 µM. For `CCCOC(=O)c1sc(NC(=O)C[C@H](CCCN)Nc2nccc3ccc(-c4noc(C)n4)cc23)nc1C` [Example 163, Propyl (S)-2-(6-amino-3-((7-(5-methyl-1,2,4-oxadiazol-3-yl)isoquinolin-1-yl)amino)hexanamido)-4-methylthiazole-5-carboxylate], the IC50 was 0.013 µM. `Cc1nc(-c2ccc3ccnc(N[C@@H](CCCN)CC(=O)Nc4nc(C)c(C(C)(C)C)s4)c3c2)no1` [Example 164, (S)-6-amino-N-(5-(tert-butyl)-4-methylthiazol-2-yl)-3-((7-(5-methyl-1,2,4-oxadiazol-3-yl)isoquinolin-1-yl)amino)hexanamide formate] gave an IC50 of 0.116 µM. With `CNCCC[C@@H](CC(=O)Nc1nc(C)c(C(=O)OC2CCCC2)s1)Nc1nccc2ccc(-c3noc(C)n3)cc12` [Example 165, Cyclopentyl (S)-4-methyl-2-(3-((7-(5-methyl-1,2,4-oxadiazol-3-yl)isoquinolin-1-yl)amino)-6-(methylamino)hexanamido)thiazole-5-carboxylate] the IC50 was 0.023 µM. For `CNCCC[C@@H](CC(=O)Nc1nc(C)c(C(=O)OC(CF)CF)s1)Nc1nccc2ccc(-c3noc(C)n3)cc12` [Example 166, 1,3-Difluoropropan-2-yl (S)-4-methyl-2-(3-((7-(5-methyl-1,2,4-oxadiazol-3-yl)isoquinolin-1-yl)amino)-6-(methylamino)hexanamido)thiazole-5-carboxylate], the IC50 was 0.011 µM. `CNCCC[C@@H](CC(=O)Nc1nc(C)c(C(=O)OC(C)C)s1)Nc1nccc2ccc(-c3noc(C)n3)cc12` [Example 167, Isopropyl (S)-4-methyl-2-(3-((7-(5-methyl-1,2,4-oxadiazol-3-yl)isoquinolin-1-yl)amino)-6-(methylamino)hexanamido)thiazole-5-carboxylate] was tested, and the IC50 was 0.01 µM. Compound `CNCCC[C@@H](CC(=O)Nc1nc(C)c(C(=O)OC(C)(C)C)s1)Nc1nccc2ccc(-c3noc(C)n3)cc12` [Example 168, tert-Butyl (S)-4-methyl-2-(3-((7-(5-methyl-1,2,4-oxadiazol-3-yl)isoquinolin-1-yl)amino)-6-(methylamino)hexanamido)thiazole-5-carboxylate] has an IC50 of 0.003 µM. With `CNCCC[C@@H](CC(=O)Nc1nc(C)c(C(=O)O)s1)Nc1nccc2ccc(-c3noc(C)n3)cc12` [Example 169, (S)-4-methyl-2-(3-((7-(5-methyl-1,2,4-oxadiazol-3-yl)isoquinolin-1-yl)amino)-6-(methylamino)hexanamido)thiazole-5-carboxylic acid] the IC50 was 0.265 µM. In the case of `CNCCC[C@@H](CC(=O)Nc1nc(C)c(C(=O)OC2CCC(F)(F)C2)s1)Nc1nccc2ccc(-c3noc(C)n3)cc12` (stereo partly drawn) [Example 170, 3,3-Difluorocyclopentyl 4-methyl-2-((S)-3-((7-(5-methyl-1,2,4-oxadiazol-3-yl)isoquinolin-1-yl)amino)-6-(methylamino)hexanamido)thiazole-5-carboxylate], the IC50 is reported as 0.004 µM. `CNCCC[C@@H](CC(=O)Nc1nc(C)c(C(C)(C)C)s1)Nc1nccc2ccc(-c3noc(C)n3)cc12` [Example 171, (S)-N-(5-(tert-butyl)-4-methylthiazol-2-yl)-3-((7-(5-methyl-1,2,4-oxadiazol-3-yl)isoquinolin-1-yl)amino)-6-(methylamino)hexanamide] was tested, and the IC50 was 0.149 µM. `CCCOC(=O)c1sc(NC(=O)C[C@H](CCCNC)Nc2nccc3ccc(-c4noc(C)n4)cc23)nc1C` [Example 172, Propyl (S)-4-methyl-2-(3-((7-(5-methyl-1,2,4-oxadiazol-3-yl)isoquinolin-1-yl)amino)-6-(methylamino)hexanamido)thiazole-5-carboxylate] showed an IC50 of 0.006 µM. Work on `CCCOC(=O)c1sc(NC(=O)[C@H](N)CNC(=O)c2cccc(-c3noc(C)n3)c2)nc1C` [Example 173, Propyl (R)-2-(2-amino-3-(3-(5-methyl-1,2,4-oxadiazol-3-yl)benzamido)propanamido)-4-methylthiazole-5-carboxylate formate] yielded an IC50 of 0.063 µM. In the case of `CCCOC(=O)c1sc(NC(=O)[C@@H](N)CNc2nccc3ccc(-c4noc(C)n4)cc23)nc1C` [Example 174, Propyl (S)-2-(2-amino-3-((7-(5-methyl-1,2,4-oxadiazol-3-yl)isoquinolin-1-yl)amino)propanamido)-4-methylthiazole-5-carboxylate], the IC50 is reported as 0.008 µM.
